According to article PMC8800111 (The Journal of Biological Chemistry, 2021):

How the values were obtained:
Assay type in all cases: cell-based
[1] = target: proteins of U3A human fibrosarcoma cells (4462 proteins detected) (Homo sapiens, UniProt Q8IXK0); conditions: protein PHC2; U3A cells
[2] = target: proteins of U3A human fibrosarcoma cells (4462 proteins detected) (Homo sapiens, UniProt P54920); conditions: protein NAPA; soluble abundance after heat, U3A cells
[3] = target: proteins of U3A human fibrosarcoma cells (4462 proteins detected) (Homo sapiens, UniProt Q9NYY8); conditions: protein FASTKD2; U3A cells
[4] = target: proteins of U3A human fibrosarcoma cells (4462 proteins detected) (Homo sapiens, UniProt Q14353); conditions: protein GAMT; U3A, 10 μM, 2 h
[5] = target: proteins of U3A human fibrosarcoma cells (4462 proteins detected) (Homo sapiens, UniProt Q6GYQ0); conditions: protein RALGAPA1; U3A, 10 μM, 2 h
[6] = target: proteins of U3A human fibrosarcoma cells (4462 proteins detected) (Homo sapiens, UniProt Q8N9T8); conditions: protein KRI1; soluble abundance after heat, U3A cells
[7] = target: proteins of U3A human fibrosarcoma cells (4462 proteins detected) (Homo sapiens, UniProt Q9H3U1); conditions: protein UNC45A; U3A cells
[8] = target: proteins of U3A human fibrosarcoma cells (4462 proteins detected) (Homo sapiens, UniProt P04083); conditions: protein ANXA1, U3A cells
[9] = target: proteins of U3A human fibrosarcoma cells (4462 proteins detected) (Homo sapiens, UniProt P23919); conditions: protein DTYMK; U3A cells
[10] = target: proteins of U3A human fibrosarcoma cells (4462 proteins detected) (Homo sapiens, UniProt O95218); conditions: protein ZRANB2, U3A cells
[11] = target: proteins of U3A human fibrosarcoma cells (4462 proteins detected) (Homo sapiens, UniProt Q9H3P7); conditions: protein ACBD3; U3A, 10 μM, 2 h
[12] = target: proteins of U3A human fibrosarcoma cells (4462 proteins detected) (Homo sapiens, UniProt P35790); conditions: protein CHKA; U3A, 10 μM, 2 h
[13] = target: proteins of U3A human fibrosarcoma cells (4462 proteins detected) (Homo sapiens, UniProt Q9UK41); conditions: protein VPS28; U3A cells
[14] = target: proteins of U3A human fibrosarcoma cells (4462 proteins detected) (Homo sapiens, UniProt Q8N9N8); conditions: protein EIF1AD; U3A, 10 μM, 2 h
[15] = target: proteins of U3A human fibrosarcoma cells (4462 proteins detected) (Homo sapiens, UniProt P34896); conditions: protein SHMT1, U3A cells
[16] = target: proteins of U3A human fibrosarcoma cells (4462 proteins detected) (Homo sapiens, UniProt P26038); conditions: protein MSN, U3A cells
[17] = target: proteins of U3A human fibrosarcoma cells (4462 proteins detected) (Homo sapiens, UniProt P50402); conditions: protein EMD; soluble abundance after heat, U3A cells
[18] = target: proteins of U3A human fibrosarcoma cells (4462 proteins detected) (Homo sapiens, UniProt A0FGR8); conditions: protein ESYT2; U3A, 10 μM, 2 h
[19] = target: proteins of U3A human fibrosarcoma cells (4462 proteins detected) (Homo sapiens, UniProt Q14657); conditions: protein LAGE3; soluble abundance after heat, U3A cells
[20] = target: proteins of U3A human fibrosarcoma cells (4462 proteins detected) (Homo sapiens, UniProt Q9UBQ5); conditions: protein EIF3K; U3A cells
[21] = target: proteins of U3A human fibrosarcoma cells (4462 proteins detected) (Homo sapiens, UniProt Q92575); conditions: protein UBXN4; U3A cells
[22] = target: proteins of U3A human fibrosarcoma cells (4462 proteins detected) (Homo sapiens, UniProt Q9Y5A9); conditions: protein YTHDF2; U3A cells
[23] = target: proteins of U3A human fibrosarcoma cells (4462 proteins detected) (Homo sapiens, UniProt Q5T2R2); conditions: protein PDSS1; U3A cells
[24] = target: proteins of U3A human fibrosarcoma cells (4462 proteins detected) (Homo sapiens, UniProt P51659); conditions: protein HSD17B4; U3A cells
[25] = target: proteins of U3A human fibrosarcoma cells (4462 proteins detected) (Homo sapiens, UniProt Q9NRL2); conditions: protein BAZ1A; U3A cells
[26] = target: proteins of U3A human fibrosarcoma cells (4462 proteins detected) (Homo sapiens, UniProt Q01518); conditions: protein CAP1; U3A cells
[27] = target: proteins of U3A human fibrosarcoma cells (4462 proteins detected) (Homo sapiens, UniProt Q9Y6M5); conditions: protein SLC30A1; U3A cells
[28] = target: proteins of U3A human fibrosarcoma cells (4462 proteins detected) (Homo sapiens, UniProt Q9Y3B4); conditions: protein SF3B6; soluble abundance after heat, U3A cells
[29] = target: proteins of U3A human fibrosarcoma cells (4462 proteins detected) (Homo sapiens, UniProt P10809); conditions: protein HSPD1; U3A, 10 μM, 2 h
[30] = target: proteins of U3A human fibrosarcoma cells (4462 proteins detected) (Homo sapiens, UniProt Q8N5G2); conditions: protein TMEM57; U3A cells

Sequence of proteins of U3A human fibrosarcoma cells (4462 proteins detected) (Homo sapiens, UniProt Q5T2R2) (Q5T2R2 whole entry): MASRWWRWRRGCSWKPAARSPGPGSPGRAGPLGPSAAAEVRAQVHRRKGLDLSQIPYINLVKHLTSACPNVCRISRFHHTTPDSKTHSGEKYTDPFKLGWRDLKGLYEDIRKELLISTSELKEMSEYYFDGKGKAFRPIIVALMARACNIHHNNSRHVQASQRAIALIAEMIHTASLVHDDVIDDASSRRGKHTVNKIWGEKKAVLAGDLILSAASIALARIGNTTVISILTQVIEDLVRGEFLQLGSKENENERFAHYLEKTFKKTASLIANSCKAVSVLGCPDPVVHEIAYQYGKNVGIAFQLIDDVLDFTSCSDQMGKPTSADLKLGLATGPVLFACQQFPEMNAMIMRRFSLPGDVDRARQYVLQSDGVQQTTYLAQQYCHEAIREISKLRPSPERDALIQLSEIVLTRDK
Sequence of proteins of U3A human fibrosarcoma cells (4462 proteins detected) (Homo sapiens, UniProt P26038) (P26038 whole entry): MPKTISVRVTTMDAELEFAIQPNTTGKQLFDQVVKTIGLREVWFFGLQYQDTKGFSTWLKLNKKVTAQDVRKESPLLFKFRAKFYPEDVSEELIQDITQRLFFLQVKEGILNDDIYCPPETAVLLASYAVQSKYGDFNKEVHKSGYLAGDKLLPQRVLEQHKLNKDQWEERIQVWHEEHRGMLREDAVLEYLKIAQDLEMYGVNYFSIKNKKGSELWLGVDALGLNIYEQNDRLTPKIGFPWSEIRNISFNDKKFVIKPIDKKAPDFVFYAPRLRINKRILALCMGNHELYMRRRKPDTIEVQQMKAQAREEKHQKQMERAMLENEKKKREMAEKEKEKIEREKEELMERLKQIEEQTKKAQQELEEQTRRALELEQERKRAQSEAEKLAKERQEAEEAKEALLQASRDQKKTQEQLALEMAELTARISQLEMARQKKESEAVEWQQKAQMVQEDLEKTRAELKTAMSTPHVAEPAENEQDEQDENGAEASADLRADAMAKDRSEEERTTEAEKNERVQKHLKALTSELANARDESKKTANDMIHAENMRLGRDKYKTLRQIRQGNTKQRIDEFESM
Sequence of proteins of U3A human fibrosarcoma cells (4462 proteins detected) (Homo sapiens, UniProt P23919) (P23919 whole entry): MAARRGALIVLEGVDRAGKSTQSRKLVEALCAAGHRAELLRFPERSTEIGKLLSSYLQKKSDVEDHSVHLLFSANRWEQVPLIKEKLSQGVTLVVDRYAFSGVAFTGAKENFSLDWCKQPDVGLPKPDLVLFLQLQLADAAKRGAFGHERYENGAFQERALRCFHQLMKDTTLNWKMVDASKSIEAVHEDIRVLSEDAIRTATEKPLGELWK
Sequence of proteins of U3A human fibrosarcoma cells (4462 proteins detected) (Homo sapiens, UniProt P35790) (P35790 whole entry): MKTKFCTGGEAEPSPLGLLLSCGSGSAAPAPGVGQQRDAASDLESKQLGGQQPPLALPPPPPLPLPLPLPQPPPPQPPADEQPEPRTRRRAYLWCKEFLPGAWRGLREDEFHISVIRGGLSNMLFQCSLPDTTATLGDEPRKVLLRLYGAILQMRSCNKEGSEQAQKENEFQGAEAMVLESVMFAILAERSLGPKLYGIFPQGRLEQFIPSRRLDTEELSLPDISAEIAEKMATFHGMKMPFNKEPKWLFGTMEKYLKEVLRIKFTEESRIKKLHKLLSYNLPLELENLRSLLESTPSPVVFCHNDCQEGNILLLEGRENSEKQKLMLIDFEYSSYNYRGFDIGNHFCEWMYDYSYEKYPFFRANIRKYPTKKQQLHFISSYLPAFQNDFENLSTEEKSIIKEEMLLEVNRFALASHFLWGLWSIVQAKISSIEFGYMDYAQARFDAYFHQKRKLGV
Sequence of proteins of U3A human fibrosarcoma cells (4462 proteins detected) (Homo sapiens, UniProt P50402) (P50402 whole entry): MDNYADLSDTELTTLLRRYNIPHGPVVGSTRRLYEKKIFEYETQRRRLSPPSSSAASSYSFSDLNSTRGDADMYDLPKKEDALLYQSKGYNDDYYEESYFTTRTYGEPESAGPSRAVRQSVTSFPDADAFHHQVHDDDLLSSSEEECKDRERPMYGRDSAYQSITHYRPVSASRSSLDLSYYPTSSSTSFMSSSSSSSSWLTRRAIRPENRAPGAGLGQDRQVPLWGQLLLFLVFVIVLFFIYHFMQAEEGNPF
Sequence of proteins of U3A human fibrosarcoma cells (4462 proteins detected) (Homo sapiens, UniProt Q9H3P7) (Q9H3P7 whole entry): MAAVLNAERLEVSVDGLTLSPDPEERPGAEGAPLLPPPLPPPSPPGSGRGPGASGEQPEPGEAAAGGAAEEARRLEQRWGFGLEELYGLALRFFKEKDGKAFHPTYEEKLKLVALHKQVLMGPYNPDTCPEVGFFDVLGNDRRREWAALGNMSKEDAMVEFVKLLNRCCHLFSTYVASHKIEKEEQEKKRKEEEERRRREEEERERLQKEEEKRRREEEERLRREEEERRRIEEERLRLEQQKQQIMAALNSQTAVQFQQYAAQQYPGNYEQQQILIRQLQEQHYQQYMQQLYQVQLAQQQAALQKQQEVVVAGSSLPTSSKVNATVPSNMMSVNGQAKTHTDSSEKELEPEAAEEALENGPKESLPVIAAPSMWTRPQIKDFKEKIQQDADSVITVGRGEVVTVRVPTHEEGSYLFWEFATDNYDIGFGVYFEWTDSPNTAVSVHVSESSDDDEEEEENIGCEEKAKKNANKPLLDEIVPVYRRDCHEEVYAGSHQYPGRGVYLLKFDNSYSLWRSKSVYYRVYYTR
Sequence of proteins of U3A human fibrosarcoma cells (4462 proteins detected) (Homo sapiens, UniProt Q8IXK0) (Q8IXK0 whole entry): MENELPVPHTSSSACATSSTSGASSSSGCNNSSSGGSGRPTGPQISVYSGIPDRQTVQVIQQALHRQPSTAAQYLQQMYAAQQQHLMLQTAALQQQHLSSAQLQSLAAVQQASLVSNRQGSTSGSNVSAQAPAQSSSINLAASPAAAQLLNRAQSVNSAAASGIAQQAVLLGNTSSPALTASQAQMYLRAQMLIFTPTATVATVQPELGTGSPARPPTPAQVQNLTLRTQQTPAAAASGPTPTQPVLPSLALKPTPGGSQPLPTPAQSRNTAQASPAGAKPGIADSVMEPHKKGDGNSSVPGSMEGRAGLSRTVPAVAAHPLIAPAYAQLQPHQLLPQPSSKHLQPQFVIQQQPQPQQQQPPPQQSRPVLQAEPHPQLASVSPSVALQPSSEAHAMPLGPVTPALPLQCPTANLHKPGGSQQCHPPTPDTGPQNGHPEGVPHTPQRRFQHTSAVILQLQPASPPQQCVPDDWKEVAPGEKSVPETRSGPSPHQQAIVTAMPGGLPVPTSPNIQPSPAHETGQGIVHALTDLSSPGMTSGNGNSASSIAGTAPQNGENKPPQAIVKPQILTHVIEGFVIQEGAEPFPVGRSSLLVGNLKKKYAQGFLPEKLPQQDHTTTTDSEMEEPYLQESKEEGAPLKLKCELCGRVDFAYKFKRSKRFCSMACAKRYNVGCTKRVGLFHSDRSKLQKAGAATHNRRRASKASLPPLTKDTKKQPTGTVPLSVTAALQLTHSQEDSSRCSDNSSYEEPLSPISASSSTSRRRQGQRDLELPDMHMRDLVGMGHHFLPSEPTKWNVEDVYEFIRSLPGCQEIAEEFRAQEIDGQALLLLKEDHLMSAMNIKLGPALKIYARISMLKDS
Sequence of proteins of U3A human fibrosarcoma cells (4462 proteins detected) (Homo sapiens, UniProt P04083) (P04083 whole entry): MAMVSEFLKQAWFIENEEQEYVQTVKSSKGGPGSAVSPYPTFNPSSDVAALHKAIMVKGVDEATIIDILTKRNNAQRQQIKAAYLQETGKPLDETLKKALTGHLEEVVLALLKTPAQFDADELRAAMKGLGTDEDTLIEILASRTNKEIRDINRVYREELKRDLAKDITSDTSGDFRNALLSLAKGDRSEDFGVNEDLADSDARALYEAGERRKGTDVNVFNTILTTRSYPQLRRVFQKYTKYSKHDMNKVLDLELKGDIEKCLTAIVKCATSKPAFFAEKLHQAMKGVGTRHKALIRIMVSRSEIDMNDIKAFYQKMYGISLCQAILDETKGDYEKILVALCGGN
Sequence of proteins of U3A human fibrosarcoma cells (4462 proteins detected) (Homo sapiens, UniProt P10809) (P10809 27-573): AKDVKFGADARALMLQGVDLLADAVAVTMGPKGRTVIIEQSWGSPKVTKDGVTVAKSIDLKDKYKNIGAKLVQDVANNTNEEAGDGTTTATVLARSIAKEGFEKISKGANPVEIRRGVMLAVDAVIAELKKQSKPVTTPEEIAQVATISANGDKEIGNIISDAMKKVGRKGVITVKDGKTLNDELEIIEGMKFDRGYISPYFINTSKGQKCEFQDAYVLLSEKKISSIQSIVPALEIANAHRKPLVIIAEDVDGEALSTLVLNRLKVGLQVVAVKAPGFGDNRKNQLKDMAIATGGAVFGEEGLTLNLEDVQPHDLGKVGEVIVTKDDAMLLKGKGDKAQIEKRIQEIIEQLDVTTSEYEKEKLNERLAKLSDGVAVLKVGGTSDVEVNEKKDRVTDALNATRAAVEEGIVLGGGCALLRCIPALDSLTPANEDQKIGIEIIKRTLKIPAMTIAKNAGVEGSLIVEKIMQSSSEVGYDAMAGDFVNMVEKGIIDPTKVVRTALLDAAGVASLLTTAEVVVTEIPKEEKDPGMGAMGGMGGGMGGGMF
Sequence of proteins of U3A human fibrosarcoma cells (4462 proteins detected) (Homo sapiens, UniProt Q9Y3B4) (Q9Y3B4 whole entry): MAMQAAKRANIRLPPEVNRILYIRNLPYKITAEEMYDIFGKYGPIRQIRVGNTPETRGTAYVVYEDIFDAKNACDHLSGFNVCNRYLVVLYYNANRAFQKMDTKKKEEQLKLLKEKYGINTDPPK
Sequence of proteins of U3A human fibrosarcoma cells (4462 proteins detected) (Homo sapiens, UniProt Q9Y5A9) (Q9Y5A9 whole entry): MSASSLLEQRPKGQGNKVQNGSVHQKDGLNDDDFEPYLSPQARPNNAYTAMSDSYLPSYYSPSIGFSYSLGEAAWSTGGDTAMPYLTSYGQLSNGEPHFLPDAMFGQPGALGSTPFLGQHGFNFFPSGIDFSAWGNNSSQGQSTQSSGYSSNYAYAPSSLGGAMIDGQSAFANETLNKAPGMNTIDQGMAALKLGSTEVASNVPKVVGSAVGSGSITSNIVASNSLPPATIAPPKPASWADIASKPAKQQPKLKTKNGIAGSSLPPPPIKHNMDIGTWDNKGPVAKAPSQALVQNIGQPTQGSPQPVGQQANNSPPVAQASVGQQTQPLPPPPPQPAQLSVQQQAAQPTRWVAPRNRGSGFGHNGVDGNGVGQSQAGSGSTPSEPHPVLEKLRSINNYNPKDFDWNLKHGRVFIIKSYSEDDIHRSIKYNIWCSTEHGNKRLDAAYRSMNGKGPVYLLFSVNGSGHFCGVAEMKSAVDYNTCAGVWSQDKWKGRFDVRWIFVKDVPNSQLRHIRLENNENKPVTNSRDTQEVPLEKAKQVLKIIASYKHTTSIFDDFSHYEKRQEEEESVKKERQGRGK

In the case of `CCc1nc(N)nc(N)c1-c1ccc(Cl)cc1` [pyrimethamine], the “Log2 (PYR/DMSO)” value [1] is reported as 0.16, the “Log2 (PYR/DMSO)” value [2] is reported as 0.14 and the “Log2 (PYR/DMSO)” value [3] is reported as 0.21. For the same compound, the “Log2 (PYR/DMSO), GAMT” value [4] was -0.27, the “Log2 (PYR/DMSO), RALGAPA1” value [5] was -0.50 and the “Log2 (PYR/DMSO)” value [6] was 0.14. For the same compound, the “Log2 (PYR/DMSO)” value [7] was 0.21, the “Log2 (PYR/DMSO)” value [8] was -0.05 and the “Log2 (PYR/DMSO)” value [9] was 0.20. For the same compound, the “Log2 (PYR/DMSO)” value [10] was -0.04, the “Log2 (PYR/DMSO), ACBD3” value [11] was 0.24 and the “Log2 (PYR/DMSO), CHKA” value [12] was 0.24. For the same compound, the “Log2 (PYR/DMSO)” value [13] was 0.21, the “Log2 (PYR/DMSO), EIF1AD” value [14] was -0.14 and the “Log2 (PYR/DMSO)” value [15] was -0.05. The “Log2 (PYR/DMSO)” value [16] was -0.04, the “Log2 (PYR/DMSO)” value [17] was 0.15 and the “Log2 (PYR/DMSO), ESYT2” value [18] was 0.33. The “Log2 (PYR/DMSO)” value [19] was 0.14, the “Log2 (PYR/DMSO)” value [20] was 0.20 and the “Log2 (PYR/DMSO)” value [21] was 0.18. For the same compound, the “Log2 (PYR/DMSO)” value [22] was 0.16, the “Log2 (PYR/DMSO)” value [23] was 0.20 and the “Log2 (PYR/DMSO)” value [24] was 0.17. For the same compound, the “Log2 (PYR/DMSO)” value [25] was 0.19, the “Log2 (PYR/DMSO)” value [26] was 0.20 and the “Log2 (PYR/DMSO)” value [27] was 0.16. The “Log2 (PYR/DMSO)” value [28] was 0.14, the “Log2 (PYR/DMSO), HSPD1” value [29] was 0.35 and the “Log2 (PYR/DMSO)” value [30] was 0.17.
